The subject of test [1] is protease activity of breast cancer specimen. Nature of the test: Gelatin digestion by breast cancer specimen collected by paracentesis and suction, pretreated with TIMP-1 and TIMP-2, on gelatin thin membrane. The class given is cell-based, human. The following applies: one breast cancer specimen suspended in buffer with 10 μg/ml of TIMP-1 and TIMP-2 together; 37° C., 16 hours. The method, then:
Abreast cancer specimen collected by paracentesis and suction was suspended in a phosphate buffer containing 0.5% of polyvinylpyrrolidone, and adhered to a gelatin thin membrane disclosed in WO97/32035 by using a cytospin apparatus of Shandon Co., Ltd. at a speed of 400 rpm. The membrane thickness of gelatin was 7 μm. The gelatin membrane was incubated at 37° C. for 16 hours under 100% of relative humidity, and then dried in air. A solution in which Ponceau 3R was dissolved at a concentration of 0.8% in 6% trichloroacetic acid aqueous solution was used as a staining solution. The membrane was immersed in the solution at room temperature for 20 seconds for staining. […]
A breast cancer specimen collected by paracentesis and suction was suspended in a phosphate buffer containing 0.5% of polyvinylpyrrolidone and 10 μg/ml of TIMP-1 (tissue inhibitor of metalloproteinase-1) and TIMP-2, and adhered to a gelatin thin membrane disclosed in WO97/32035 by using a cytospin apparatus of Shandon Co., Ltd. at a speed of 400 rpm. […] When traces of digestion were detected in the same manner except for the treatments with TIMP-1 and TIMP-2 as a control, presence of distinct traces of digestion was observed.

Test [2] has as its system Protease activity of breast cancer specimens. Nature of the test: Protease activity measurement of frozen breast cancer slices on gelatin thin membranes containing a matrix metalloproteinase inhibitor. Conditions: 20 breast cancer specimens; inhibitor contained in gelatin thin membrane; 37° C., 16 hours. The class given is biochemical, human. The method, then: A breast cancer specimen, which was extracted by surgical operation and frozen, was sliced at −25° C. into slices having a thickness of 4 μm by using a cryostat, and adhered to a gelatin thin membrane disclosed in WO97/32035. The thickness of gelatin was 7 μm. This gelatin membrane was incubated at 37° C. for 16 hours under 100% of relative humidity, and then dried in air. A solution obtained by mixing a solution in which Ponceau 3R was dissolved at a concentration of 0.8% in 6% trichloroacetic acid aqueous solution and ethanol at a volume ratio of 3:7 was used as a staining solution. The membrane was immersed in the solution at room temperature for 4 minutes for staining. After the membrane was washed with water for 10 minutes, the membrane was then immersed in a Mayer's hematoxylin solution for 2 minutes for nuclear staining, and further washed with water for 10 minutes and dried in air. After the drying, a Cover Aid Film (Sakura Seiki Co., Ltd.) was adhered to the membrane using xylene to enclose the breast cancer slice. The film was held on a plastic mount and observed under an optical microscope. […]
Protease activity of breast cancer specimens, which were extracted by surgical operation and then frozen, was measured in the same manner as Example 1 using gelatin thin membranes containing a matrix metalloproteinase inhibitor (1,10-phenanthroline) disclosed in WO97/32035. […]

As to “TIMP-1: tissue inhibitor of metalloproteinase-1”, the “Gelatin digestion on sites where the cancer cells were present” value in test [1] was “not observed”.
As to `c1cnc2c(c1)ccc1cccnc12` [1,10-phenanthroline], the “Protease activity (traces of digestion on gelatin thin membrane)” value in test [2] was “suppressed in all specimens”.
